According to patent publication US8592421B2, “Cyclic bioisosters of purine system derivatives and a pharmaceutical composition based thereon” (priority 2003, dated 2013):

Assays:
[1] = Electrochemical activity: polarographic reduction on mercury dripping electrode; assay type: physicochemical; details: for i: 2.0% sodium chloride background, 9·10^−4 M; for i / −E1/2: 37° C., forward trace, average for the group of compounds; for −E1/2: vs SCE
[2] = Morphine abstinence model: indicator enzymes ALT, AST, γ-GTP in blood plasma; details: 20.0 mg/kg intramuscularly three times a day; for γ-GTP in blood plasma, Ci: control 6.261 ± 1.80; for ALT in blood plasma, Ci: control 106.76 ± 111.35; for AST in blood plasma, Ci: control 179.881 ± 11.94
Method: The experiments were carried out on rats in series of 7 animals on each compound according to the invention. Non-morphinized animal with not administered with compounds according to the invention were used as a control group. […] Then the rats were decapitated, the blood from somnolent arteries was collected in test tubes with solution EDTA as an anticoagulant, centrifuged at 1500 g for 15 minutes at 4° C.
To estimate possible hepatoprotective action of the compounds according to the invention under conditions of development of an oxidizing stress in the liver cells, effect of these compounds on the most important biochemical blood indexes, in particular, on the content in blood plasma of indicator enzyme of aspartateaminotransferase (AST), alanineaminotransferase (ALT), γ-glutamiletranspeptidase (γ-GTP) was investigated. The content of enzymes was estimated by their catalyzing activity in blood plasma.
The activity of AST, ALT and γ-GTP was determined by means of diagnostic sets DiaSys, Germany.

[3] = Chronic toxicity of suppositories: indexes of urine; assay type: in vivo, rats; details: rats, suppositories rectal, 1 month after administration
Method: The experiments were conducted on inbred rats.

[4] = Chronic toxicity of suppositories: biochemical indexes of blood serum; assay type: in vivo, rats; details: male rats, suppositories, 1 month; for Cholesterol in blood serum: control 3.02 ± 0.08; for Urea in blood serum: control 8.44 ± 0.60; for Glucose in blood serum: control 9.76 ± 0.15; for ALT in blood serum: control 11.33 ± 1.96; for AST in blood serum: control 19.13 ± 1.02; for Bilirubin in blood serum: control 35.93 ± 2.19; for Creatinine in blood serum: control 40.23 ± 2.84; for Alkalinous phosphatase in blood serum: control 40.74 ± 1.57; for Total protein in blood serum: control 94.89 ± 6.67;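 on all read-outs here: inbred rats dosed rectally with softened suppositories, controls given matching volumes of sterile medical liquid paraffin, serum sampled one month into a two-month dosing course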
Method: Two doses of preparations used in the experiments: 50 mg/kg and 500 mg/kg. Before the administration, the suppositories were softened by heating in a glass water bath at a temperature of 38-39° C., the soft mass was collected in tuberculin syringe in a volume of 1 ml, a needle with oliva was attached to the syringe, and the preparatory mass was introduced into the rectum of the animal for a depth of 1.5-2.0 cm. The animals of the control group were administered with sterile medical liquid paraffin in a volume corresponding to the volume of the investigated suppository. A complete course of administration of drugs to the animals was two months. A complex of laboratory diagnostic investigations was carried out one month after the beginning of the administration of the preparation to the animal—in a middle of the course (8 animals), two months after ending the course (8 animals) and three months after ending the recovery period of one month (8 animals). The mass of the body of the rats in the first month of administration of the preparation was determined weekly, and then once in two weeks. On the basis of the dynamics of an index of the mass of the animal body, the volume of preparation being administered was corrected taking into account the test dose.

[5] = Chronic toxicity of suppositories: indexes of peripheral blood; assay type: in vivo, rats; set-up: Thrombocytes: unit not given here; details: male rats, suppositories rectally; for Basophiles / Juveniles: 1 month/2 months (one value given), control 0

With O=c1[nH][nH]c(=O)c2nccnc12.[Li] [Compound 25, lithium salt of pyrazine[2,3-d]-6H-pyridazine-5,8-dione] the “number of electrons participating in the reduction reaction” value ([1]; calculated with Geirovsky-Ilkovich equation) was 3.72, the i ([1]; pH 7.0) was 0.32 ± 0.03 mkA and the “−E1/2” value ([1]; pH 7.0) was 0.16 ± 0.02 V. The i ([1]; pH 7.2) was 0.33 ± 0.04 mkA, the “−E1/2” value ([1]; pH 7.2) was 0.19 ± 0.02 V and the i ([1]; pH 7.4) was 0.34 ± 0.03 mkA. The “−E1/2” value ([1]; pH 7.4) was 0.175 ± 0.01 V, the i ([1]; pH 7.6) was 0.34 ± 0.02 mkA and the “−E1/2” value ([1]; pH 7.6) was 0.16 ± 0.015 V. For the same compound, the “half-wave potential more positive at reverse stroke compared to forward stroke” value ([1]; polarograms of reverse stroke) was 20.0 mV, the “γ-GTP in blood plasma, Ci” value ([2]; Control + compound) was 7.57 ± 1.93 mE/l and the “ALT in blood plasma, Ci” value ([2]; Control + compound) was 115.27 ± 1.09 mE/l. For the same compound, the “AST in blood plasma, Ci” value ([2]; Control + compound) was 177.34 ± 6.13 mE/l, the “γ-GTP in blood plasma, Ci” value ([2]; control + Morphine + Compound) was 11.37 ± 1.54 mE/l and the “ALT in blood plasma, Ci” value ([2]; control + Morphine + Compound) was 121.96 ± 3.4 mE/l. For the same compound, the “AST in blood plasma, Ci” value ([2]; control + Morphine + Compound) was 196.46 ± 15.34 mE/l.
With O=c1[nH][nH]c(=O)c2c(Br)ncnc12.[K] [Compound 37, potassium salt of 4-bromine-pyrimido[4,5-D]-6H-pyridazine-5,8-dione] the “Bilirubin (urine)” value ([3]; dose 50 mg/kg) was less than 5 Mkmol/l, the “Glucose (urine)” value ([3]; dose 50 mg/kg) was less than 5 mmol/L and the “Ketone bodies (urine)” value ([3]; dose 50 mg/kg) was less than 1 mmol/L. The “Potassium (urine)” value ([3]; dose 50 mg/kg) was 6.12 ± 1.4 g/L, the “Protein (urine)” value ([3]; dose 50 mg/kg) was 0.70 ± 0.19 g/L and the “Sodium (urine)” value ([3]; dose 50 mg/kg) was 1.4 ± 0.2 g/L. The “Urea (urine)” value ([3]; dose 50 mg/kg) was 427 ± 137 mmol/L, the “Urobilinogen (urine)” value ([3]; dose 50 mg/kg) was less than 15 Mkmol/l and the “pH (urine)” value ([3]; dose 50 mg/kg) was 6.4 ± 0.4. The “Bilirubin (urine)” value ([3]; dose 500 mg/kg) was less than 5 Mkmol/l, the “Glucose (urine)” value ([3]; dose 500 mg/kg) was less than 5 mmol/L and the “Ketone bodies (urine)” value ([3]; dose 500 mg/kg) was less than 1 mmol/L. The “Potassium (urine)” value ([3]; dose 500 mg/kg) was 6.44 ± 1.3 g/L, the “Protein (urine)” value ([3]; dose 500 mg/kg) was 0.72 ± 0.14 g/L and the “Sodium (urine)” value ([3]; dose 500 mg/kg) was 0.88 ± 0.4 g/L. For the same compound, the “Urea (urine)” value ([3]; dose 500 mg/kg) was 489 ± 152 mmol/L, the “Urobilinogen (urine)” value ([3]; dose 500 mg/kg) was less than 15 Mkmol/l and the “pH (urine)” value ([3]; dose 500 mg/kg) was 6.2 ± 0.3. For the same compound, the “γ-GTP in blood plasma, Ci” value ([2]; Control + compound) was 8.14 ± 2.64 mE/l, the “ALT in blood plasma, Ci” value ([2]; Control + compound) was 113.84 ± 2.0 mE/l and the “AST in blood plasma, Ci” value ([2]; Control + compound) was 174.82 ± 4.91 mE/l. The “γ-GTP in blood plasma, Ci” value ([2]; control + Morphine + Compound) was 10.32 ± 2.67 mE/l, the “ALT in blood plasma, Ci” value ([2]; control + Morphine + Compound) was 120.84 ± 5.20 mE/l and the “AST in blood plasma, Ci” value ([2]; control + Morphine + Compound) was 193.58 ± 14.18 mE/l. For the same compound, the “Cholesterol in blood serum” value ([4]; 50 mg/kg) was 2.48 ± 0.62 mmol/L, the “Urea in blood serum” value ([4]; 50 mg/kg) was 9.36 ± 0.62 Mkmol/l and the Glucose in blood serum ([4]; 50 mg/kg) was 9.9 ± 0.51 mM. The “ALT in blood serum” value ([4]; 50 mg/kg) was 8.98 ± 2.43 unit/l, the “AST in blood serum” value ([4]; 50 mg/kg) was 19.97 ± 2.78 unit/1 and the “Bilirubin in blood serum” value ([4]; 50 mg/kg) was 42.17 ± 3.28 mmol/L. The “Creatinine in blood serum” value ([4]; 50 mg/kg) was 46.84 ± 2.92 mkmol/l, the “Alkalinous phosphatase in blood serum” value ([4]; 50 mg/kg) was 41.86 ± 5.26 unit/l and the “Total protein in blood serum” value ([4]; 50 mg/kg) was 89.44 ± 7.22 g/L. For the same compound, the “Cholesterol in blood serum” value ([4]; 500 mg/kg) was 2.64 ± 0.46 mmol/L, the “Urea in blood serum” value ([4]; 500 mg/kg) was 10.57 ± 0.56 Mkmol/l and the Glucose in blood serum ([4]; 500 mg/kg) was 10.9 ± 0.84 mM. For the same compound, the “ALT in blood serum” value ([4]; 500 mg/kg) was 9.56 ± 1.34 unit/l, the “AST in blood serum” value ([4]; 500 mg/kg) was 18.21 ± 1.87 unit/1 and the “Bilirubin in blood serum” value ([4]; 500 mg/kg) was 41.45 ± 7.18 mmol/L. The “Creatinine in blood serum” value ([4]; 500 mg/kg) was 47.13 ± 9.82 mkmol/l, the “Alkalinous phosphatase in blood serum” value ([4]; 500 mg/kg) was 42.18 ± 2.34 unit/l and the “Total protein in blood serum” value ([4]; 500 mg/kg) was 70.88 ± 7.24 g/L. The Basophiles ([5]; 50 mg/kg) was 0%, the Juveniles ([5]; 50 mg/kg) was 0% and the Stab neutrophil ([5]; 50 mg/kg, 1 month, control 0.8 ± 0.4) was 1.3 ± 0.5%. For the same compound, the REE ([5]; 50 mg/kg, 1 month, control 2.2 ± 0.4) was 1.8 ± 0.3 mm/h, the Reticulocytes ([5]; 50 mg/kg, 1 month, control 2.8%0.3) was 2.6 ± 0.1% and the Eosinophiles ([5]; 50 mg/kg, 1 month, control 4.0 + 0.3) was 3.8 ± 0.8%. The Erythrocytes ([5]; 50 mg/kg, 1 month, control 5.6 ± 0.1) was 5.6 ± 0.2 mln/mm^3, the Hemoglobin ([5]; 50 mg/kg, 1 month, control 10.5 ± 0.2) was 10.5 ± 0.1 mmol/L and the Leukocyte ([5]; 50 mg/kg, 1 month, control 17.4 ± 1.3) was 14.9 ± 1.5 thousand/mm^3. The Haematocrite ([5]; 50 mg/kg, 1 month, control 45.9 ± 1.7) was 47.8 ± 1.4%, the “Average volume of erythrocytes” value ([5]; 50 mg/kg, 1 month, control 81.4 ± 1.7) was 83.9 ± 1.7 Mkm^3 and the “Coagulation, time” value ([5]; 50 mg/kg, 1 month, control 152 ± 10.2) was 151 ± 13 s. For the same compound, the Thrombocytes ([5]; 50 mg/kg, 1 month, control 707 ± 23) was 675 ± 22, the REE ([5]; 50 mg/kg, 2 months, control 1.4 ± 0.2) was 1.6 ± 0.3 mm/h and the Stab neutrophil ([5]; 50 mg/kg, 2 months, control 2.4 ± 0.4) was 1.9 ± 0.4%. The Reticulocytes ([5]; 50 mg/kg, 2 months, control 2.9 ± 0.2) was 3.1 ± 0.1%, the Eosinophiles ([5]; 50 mg/kg, 2 months, control 4.4 + 1.2) was 4.2 ± 0.3% and the Erythrocytes ([5]; 50 mg/kg, 2 months, control 6.1 ± 0.1) was 6.2 ± 0.1 mln/mm^3. It also gave a Hemoglobin ([5]; 50 mg/kg, 2 months, control 11.4 ± 0.2) of 11.0 ± 0.1 mmol/L, a Leukocyte ([5]; 50 mg/kg, 2 months, control 19.1 ± 1.9) of 16.7 ± 1.2 thousand/mm^3 and a Haematocrite ([5]; 50 mg/kg, 2 months, control 45.9 ± 1.8) of 47.5 ± 1.2%. For the same compound, the “Average volume of erythrocytes” value ([5]; 50 mg/kg, 2 months, control 74.6 + 1.9) was 78.5 ± 1.4 Mkm^3, the “Coagulation, time” value ([5]; 50 mg/kg, 2 months, control 316 ± 8) was 319 ± 12 s and the Thrombocytes ([5]; 50 mg/kg, 2 months, control 593 ± 14) was 609 ± 18. For the same compound, the Basophiles ([5]; 500 mg/kg) was 0%, the Juveniles ([5]; 500 mg/kg) was 0% and the Stab neutrophil ([5]; 500 mg/kg, 1 month, control 0.8 ± 0.4) was 0.9 ± 0.4%. It also gave an REE ([5]; 500 mg/kg, 1 month, control 2.2 ± 0.4) of 2.2 ± 0.3 mm/h, a Reticulocytes ([5]; 500 mg/kg, 1 month, control 2.8%0.3) of 3.0 ± 0.2% and an Eosinophiles ([5]; 500 mg/kg, 1 month, control 4.0 + 0.3) of 3.5 ± 1.0%. For the same compound, the Erythrocytes ([5]; 500 mg/kg, 1 month, control 5.6 ± 0.1) was 5.7 ± 0.1 mln/mm^3, the Hemoglobin ([5]; 500 mg/kg, 1 month, control 10.5 ± 0.2) was 10.6 ± 0.1 mmol/L and the Leukocyte ([5]; 500 mg/kg, 1 month, control 17.4 ± 1.3) was 17.1 ± 0.9 thousand/mm^3. The Haematocrite ([5]; 500 mg/kg, 1 month, control 45.9 ± 1.7) was 47.9 ± 1.8%, the “Average volume of erythrocytes” value ([5]; 500 mg/kg, 1 month, control 81.4 ± 1.7) was 82.3 ± 1.5 Mkm^3 and the “Coagulation, time” value ([5]; 500 mg/kg, 1 month, control 152 ± 10.2) was 157 ± 14 s. It also gave an REE ([5]; 500 mg/kg, 2 months, control 1.4 ± 0.2) of 2.0 ± 0.1 mm/h, a Stab neutrophil ([5]; 500 mg/kg, 2 months, control 2.4 ± 0.4) of 1.1 ± 0.6% and a Reticulocytes ([5]; 500 mg/kg, 2 months, control 2.9 ± 0.2) of 3.4 ± 0.2%. The Eosinophiles ([5]; 500 mg/kg, 2 months, control 4.4 + 1.2) was 4.1 ± 1.3%, the Erythrocytes ([5]; 500 mg/kg, 2 months, control 6.1 ± 0.1) was 6.5 ± 0.2 mln/mm^3 and the Hemoglobin ([5]; 500 mg/kg, 2 months, control 11.4 ± 0.2) was 12.1 ± 0.4 mmol/L. For the same compound, the Leukocyte ([5]; 500 mg/kg, 2 months, control 19.1 ± 1.9) was 18.7 ± 1.7 thousand/mm^3, the Haematocrite ([5]; 500 mg/kg, 2 months, control 45.9 ± 1.8) was 52.5 ± 1.7% and the “Average volume of erythrocytes” value ([5]; 500 mg/kg, 2 months, control 74.6 + 1.9) was 80.1 ± 1.0 Mkm^3. It also gave a Thrombocytes ([5]; 500 mg/kg, 2 months, control 593 ± 14) of 639 ± 34.
